The subject of data set [1] is RAW 264.7 macrophages. The experiment in a line: Flow cytometric cytotoxicity (Zombie Aqua viability dye) in macrophages. The conditions noted are these: mouse, 70 %. Format: cell-based. As to the method: (§1) Macrophage cell culture. RAW 264.7 macrophages were purchased from ATCC and were cultured in T75 polystyrene tissue culture flasks (BD Biosciences) in Dulbecco's Modified Eagle Medium supplemented with 10% fetal bovine serum (FBS) (Gibco) and 1% penicillin/streptomycin antibiotics (Life Technologies). Cells were passaged by mechanical scraping after reaching 70-80% confluency.
(§2) Flow cytometric analysis of nanocarrier uptake and cytotoxicity. For each specified cell line, a total of 100,000 cells were seeded per well in 24-well polystyrene plates (Falcon). Cells were allowed to adhere overnight at 37° C., 4.0% CO2. For uptake studies involving endocytosis inhibitor pre-treatments, cells were incubated with either PBS (i.e., no inhibitor), cytochalasin D (CytD, 50 μM) phagocytosis inhibitor, or chlorpromazine (CPZ, 50 μM) clathrin-mediated endocytosis inhibitor prior to administering nanocarriers. Inhibitor concentrations were chosen based on published reports^36,53. Cells were treated with nanocarriers at the specified polymer concentration for 2 h. […] A total of 10,000 single cell events were recorded per sample and the resulting data were analyzed using the Cytobank analysis suite^54. The median fluorescence intensity (MFI) was normalized by subtracting the average MFI from untreated cells and was used to quantify the cellular uptake of nanocarriers.
On the technique in general: Flow cytometry measures light scatter and fluorescence of single cells or particles in a stream.

In data set [2] the test system is RAW 264.7 macrophages. The experiment in a line: Flow cytometric analysis of nanocarrier uptake by macrophages (MFI), with or without endocytosis inhibitors. Type of data set: cell-based. The conditions noted are these: 50 μM CytD or 50 μM CPZ pre-treatment; nanocarriers at 1.0 mg/mL polymer. Here is the method: as §1, §2

As to `CCO` [70% ethanol, ethanol], in the data set with RAW 264.7 macrophages [1], the macrophage viability entry is given as “below 30%”.

On to `CN(C)CCCN1c2ccccc2Sc2ccc(Cl)cc21` [chlorpromazine], for which the “nanocarrier uptake after pre-treatment with endocytosis inhibitors (in words)” value with RAW 264.7 macrophages [2] is “decreased uptake of all structures”.

As for `C=C1[C@@H](C)[C@H]2[C@H](Cc3ccccc3)NC(=O)[C@]23[C@H](OC(C)=O)/C=C/[C@@](C)(O)C(=O)[C@@H](C)C/C=C/[C@H]3[C@@H]1O` [cytochalasin D], in the data set on RAW 264.7 macrophages [2], the “nanocarrier uptake after pre-treatment with endocytosis inhibitors (in words)” value is given as “decreased uptake of all structures”.

The values above are taken from patent publication US20220401367A1, “REHYDRATABLE, MORPHOLOGICALLY DIVERSE NANOCARRIER POWDERS” (Northwestern University, priority 2021, published 2022).
